These results are taken from patent US9663496B2, “AMPK-activating heterocyclic compounds and methods for using the same” (Rigel Pharmaceuticals, Inc., priority 2010, dated 2017).

The term EC50 denotes the concentration giving half of the maximal effect.

The target in this test is AMPK. The test is described as follows: AMPK activation, enzyme-linked immunosorbent assay. The following applies: EC50 for AMPK activation, ELISA. It counts as biochemical. The method in brief:
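Kit-based immunoassay; compounds screened as activators; standard reagents and protocol.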
Background: ELISA stands for enzyme-linked immunosorbent assay.
Consider `COc1ccc(OC2CCN(C(=O)c3ccc(C(=O)NC4CCN(Cc5ccc(C#N)cc5)CC4)cn3)CC2)c(NC(=O)CCOCCOCCOCCOCCNC(=O)CCCC[C@@H]2SC[C@@H]3NC(=O)N[C@@H]32)c1` [Compound 394, N-(1-(4-cyanobenzyl)piperidin-4-yl)-6-(4-(4-methoxy-2-(17-oxo-21-((3aS,4S,6aR)-2-oxohexahydro-1H-thieno[3,4-d]imidazol-4-yl)-4,7,10,13-tetraoxa-16-azahenicosanamido)phenoxy)piperidine-1-carbonyl)nicotinamide], for which the EC50 is over 10000 nM.
Consider `COc1ccc(O[C@H]2CC[C@@H](NC(=O)c3ccc(C(=O)N4CCC(C(=O)c5ccc(OC)cc5)CC4)cn3)CC2)cc1` [Compound 184, 5-(4-(4-methoxybenzoyl)piperidine-1-carbonyl)-N-((cis)-4-(4-methoxyphenoxy)cyclohexyl)picolinamide], for which the EC50 is under 500 nM.
`COc1ccc(C(=O)C2CCN(C(=O)c3ccc(C(=O)N[C@@H]4CCN(Cc5ccc(OC(C)C)cc5)C[C@H]4F)cn3)CC2)cc1` (relative stereo) [Compound 353, N-((trans)-3-fluoro-1-(4-isopropoxybenzyl)piperidin-4-yl)-6-(4-(4-methoxybenzoyl)piperidine-1-carbonyl)nicotinamide] returned an EC50 of under 500 nM.
Take `N#Cc1ccc(CN2CCC(NC(=O)c3ccc(C(=O)N4CCC(Oc5ccncc5)CC4)cn3)CC2)cc1` [Compound 269, N-(1-(4-cyanobenzyl)piperidin-4-yl)-5-(4-(pyridin-4-yloxy)piperidine-1-carbonyl)picolinamide]: the EC50 was under 500 nM.
`N#Cc1ccc(CN2CCC3(CC2)CCN(c2ccc(C(=O)N4CCN(Cc5ccc(F)cc5)CC4)cn2)C3)cc1` [Compound 31, 4-((2-(5-(4-(4-fluorobenzyl)piperazine-1-carbonyl)pyridin-2-yl)-2,8-diazaspiro[4.5]decan-8-yl)methyl)benzonitrile] displayed an EC50 of under 500 nM.
The compound `O=C(NC1CCN(Cc2ccc(OC(F)(F)F)cc2)CC1)c1ccc(C(=O)N2CCC(Oc3ccc(S(F)(F)(F)(F)F)cc3)CC2)nc1` [Compound 494, 6-(4-(4-(pentafluorosulfanyl)phenoxy)piperidine-1-carbonyl)-N-(1-(4-(trifluoromethoxy)benzyl)piperidin-4-yl)nicotinamide] yielded an EC50 of under 500 nM.
Consider `COc1ccc(C(=O)C2CCN(C(=O)c3ccc(C(=O)Nc4ccc(Oc5ccc(C#N)cc5)cn4)cn3)CC2)cc1` [Compound 468, N-(5-(4-cyanophenoxy)pyridin-2-yl)-6-(4-(4-methoxybenzoyl)piperidine-1-carbonyl)nicotinamide], for which the EC50 is under 500 nM.
Compound `COc1ccc(C(=O)C2CCN(C(=O)c3ccc(C(=O)N[C@@H]4CCN(Cc5ccc(C#N)cc5)C[C@H]4F)cn3)CC2)cc1` [Compound 452, N-((3R,4R)-1-(4-cyanobenzyl)-3-fluoropiperidin-4-yl)-6-(4-(4-methoxybenzoyl)piperidine-1-carbonyl)nicotinamide] came in with an EC50 of under 500 nM.
On to `N#Cc1ccc(N2CCC(NC(=O)c3ccc(C(=O)N4CCN(Cc5ccc(F)cc5)CC4)nc3)CC2)cc1` [Compound 417, N-(1-(4-cyanophenyl)piperidin-4-yl)-6-(4-(4-fluorobenzyl)piperazine-1-carbonyl)nicotinamide], for which the EC50 was under 500 nM.
`CC(=O)Nc1cccc(OC2CCN(C(=O)c3ccc(C(=O)NC4CCN(Cc5ccc(C#N)cc5)CC4)cn3)CC2)c1` [Compound 411, 6-(4-(3-acetamidophenoxy)piperidine-1-carbonyl)-N-(1-(4-cyanobenzyl)piperidin-4-yl)nicotinamide] registered a 50% effective concentration (EC50) of 1000 to 5000 nM.
Turning to `CS(=O)(=O)c1ccc(OC2CCN(C(=O)c3ccc(C(=O)N[C@@H]4CCN(Cc5ccc(C#N)cc5)C[C@H]4F)nc3)CC2)cc1` (relative stereo) [Compound 254, N-((trans)-1-(4-cyanobenzyl)-3-fluoropiperidin-4-yl)-5-(4-(4-(methylsulfonyl)phenoxy)piperidine-1-carbonyl)picolinamide], the EC50 was under 500 nM.
In turn, `O=C(NC1CCN(Cc2ccc(OC(F)(F)F)cc2)CC1)c1ccc(C(=O)N2CCC(C(=O)c3ccc(N4CCCC4)cc3)CC2)nc1` [Compound 440, 6-(4-(4-(pyrrolidin-1-yl)benzoyl)piperidine-1-carbonyl)-N-(1-(4-(trifluoromethoxy)benzyl)piperidin-4-yl)nicotinamide] returned an EC50 of under 500 nM.
Regarding `N#Cc1ccc(CN2CCC(NC(=O)c3ccc(C(=O)N4CCC(C(=O)c5ccc(F)cc5F)CC4)nc3)CC2)cc1` [Compound 346, N-(1-(4-cyanobenzyl)piperidin-4-yl)-6-(4-(2,4-difluorobenzoyl)piperidine-1-carbonyl)nicotinamide], the EC50 is under 500 nM.
The value for `O=C(N[C@@H]1CCNC[C@@H]1F)c1ccc(C(=O)N2CCN(Cc3ccc(F)cc3)CC2)cn1` (relative stereo) [Compound 102, 5-(4-(4-fluorobenzyl)piperazine-1-carbonyl)-N-(cis-3-fluoropiperidin-4-yl)picolinamide] was 5000 to 10000 nM; that for `CC(=O)Nc1ccc(OC2CCN(C(=O)c3ccc(C(=O)Nc4ccc(Oc5ccc(F)cc5)nc4)nc3)CC2)cc1` [Compound 408, 5-(4-(4-acetamidophenoxy)piperidine-1-carbonyl)-N-(6-(4-fluorophenoxy)pyridin-3-yl)picolinamide] was under 500 nM; that for `CC(=O)c1ccc(OC2CCN(C(=O)c3ccc(C(=O)Nc4ccc(Oc5ccc(F)cc5)nc4)nc3)CC2)cc1` [Compound 359, 5-(4-(4-acetylphenoxy)piperidine-1-carbonyl)-N-(6-(4-fluorophenoxy)pyridin-3-yl)picolinamide] was under 500 nM.
Consider `COc1ccc(CN2CCC(NC(=O)c3ccc(C(=O)N4CCC(C(=O)c5ccc(S(C)(=O)=O)cc5)CC4)nc3)CC2)cc1` [Compound 223, N-(1-(4-methoxybenzyl)piperidin-4-yl)-6-(4-(4-(methylsulfonyl)benzoyl)piperidine-1-carbonyl)nicotinamide], for which the EC50 lay within 1000 to 5000 nM.
`O=C(NCc1ccccc1)c1ccc(C(=O)N2CCN(Cc3ccccc3)CC2)cn1` [Compound 116, N-benzyl-5-(4-benzylpiperazine-1-carbonyl)picolinamide] showed an EC50 of 1000 to 5000 nM.
The figure for `N#Cc1ccc(CN2CCC(NC(=O)c3ccc(Nc4ccc(-c5ccccc5)cc4)cn3)CC2)cc1` [Compound 109, 5-(biphenyl-4-ylamino)-N-(1-(4-cyanobenzyl)piperidin-4-yl)picolinamide] is 5000 to 10000 nM; for `N#Cc1ccc(OC2CCN(C(=O)c3ccc(C(=O)NC4CCN(c5ccc(F)cc5)CC4)cn3)CC2)cc1` [Compound 422, 6-(4-(4-cyanophenoxy)piperidine-1-carbonyl)-N-(1-(4-fluorophenyl)piperidin-4-yl)nicotinamide] it is 1000 to 5000 nM; for `N#Cc1ccc(CC2CCC(NC(=O)c3cccc(C(=O)N4CCN(Cc5ccc(F)cc5)CC4)n3)CC2)cc1` (stereo not drawn) [Compound 99, N-(4-(4-cyanobenzyl)cyclohexyl)-6-(4-(4-fluorobenzyl)piperazine-1-carbonyl)picolinamide] it is 5000 to 10000 nM.
For the compound `N#Cc1ccc(OC2CCN(C(=O)c3ccc(C(=O)N[C@H]4CC[C@@H](Oc5ccc(C#N)cc5)CC4)cn3)CC2)cc1` [Compound 321, N-((cis)-4-(4-cyanophenoxy)cyclohexyl)-6-(4-(4-cyanophenoxy)piperidine-1-carbonyl)nicotinamide], the EC50 was under 500 nM.
In the case of `N#Cc1ccc(C(=O)N2CCC(NC(=O)c3ccc(C(=O)N4CCN(Cc5ccc(F)cc5)CC4)cn3)CC2)cc1` [Compound 4, N-(1-(4-cyanobenzoyl)piperidin-4-yl)-5-(4-(4-fluorobenzyl)piperazine-1-carbonyl)picolinamide], the EC50 lay in the range of 500 to 1000 nM.
In turn, `COc1ccc(OC2CCN(C(=O)c3ccc(C(=O)NC4CCN(Cc5ccc(C#N)cc5)CC4)cn3)CC2)c(NS(C)(=O)=O)c1` [Compound 389, N-(1-(4-cyanobenzyl)piperidin-4-yl)-6-(4-(4-methoxy-2-(methylsulfonamido)phenoxy)piperidine-1-carbonyl)nicotinamide] showed an EC50 of 1000 to 5000 nM.
For the compound `N#Cc1ccc(CN2CCC(C(=O)Nc3ccc(C(=O)N4CCC(C(=O)c5ccc(F)cc5)CC4)cn3)CC2)cc1` [Compound 175, 1-(4-cyanobenzyl)-N-(5-(4-(4-fluorobenzoyl)piperidine-1-carbonyl)pyridin-2-yl)piperidine-4-carboxamide], the concentration giving a half-maximal response (EC50) was under 500 nM.
Turning to `C[S+]([O-])c1ccc(C(=O)C2CCN(C(=O)c3ccc(C(=O)NC4CC[N+]([O-])(Cc5ccc(C#N)cc5)CC4)nc3)CC2)cc1` (stereo not drawn) [Compound 374, 1-(4-cyanobenzyl)-4-(5-(4-(4-(methylsulfinyl)benzoyl)piperidine-1-carbonyl)picolinamido) piperidine 1-oxide], the EC50 was over 10000 nM.
Consider `N#Cc1ccc(OC2CCN(c3ccc(C(=O)N4CCN(Cc5ccc(F)cc5)CC4)cn3)CC2)cc1` [Compound 188, 4-(1-(5-(4-(4-fluorobenzyl)piperazine-1-carbonyl)pyridin-2-yl)piperidin-4-yloxy)benzonitrile], for which the EC50 lay within 500 to 1000 nM.
As to `CC(C)N1CCN(C(=O)c2ccc(C(=O)NC3CCN(Cc4ccc(C#N)cc4)CC3)nc2)CC1` [Compound 84, N-(1-(4-cyanobenzyl)piperidin-4-yl)-5-(4-isopropylpiperazine-1-carbonyl)picolinamide], the EC50 fell in the range of 1000 to 5000 nM.
The value for `COc1ccc(OC2CCN(C(=O)c3ccc(C(=O)NC4CCN(Cc5ccc(C#N)cc5)CC4)cn3)CC2)c(N(C)C)c1` [Compound 385, N-(1-(4-cyanobenzyl)piperidin-4-yl)-6-(4-(2-(dimethylamino)-4-methoxyphenoxy)piperidine-1-carbonyl)nicotinamide] was over 10000 nM.
Regarding `COc1ccc(C(=O)C2CCN(C(=O)c3ccc(C(=O)NC4CCN(Cc5ccc(F)cc5)CC4)cn3)CC2)cc1` [Compound 317, N-(1-(4-fluorobenzyl)piperidin-4-yl)-6-(4-(4-methoxybenzoyl)piperidine-1-carbonyl)nicotinamide], the EC50 is under 500 nM.
